Values of other authors as cited in patent US20160338997A1, “KELOID REDUCTION USING TOPICAL ALLANTOIN” (Scioderm, Inc., priority 2013, published 2016).

Conditions: emulsion pH 6.8 to 7.5; with time and in accelerated stability tests at 40° C

Question: For `NC(=O)NC1NC(=O)NC1=O` (stereo not shown) [allantoin], which degradation of allantoin is on record?
Answer: Its degradation of allantoin is “degrades significantly”.
